The source of these data is patent US8748395B2, “Cell-permeable peptide inhibitors of the JNK signal transduction pathway” (Xigen Inflammation Ltd., priority 2006, dated 2014).

One data set deals with JNK. As to conditions: JBDs; cited from earlier work.
In a further data set the test system is βTC-3 cell cultures. The data set is described as follows: Cellular import of fluorescein-labeled TAT and TAT-IB1(s) peptides. The data set is classed as cell-based. On the procedure:
The ability of the L- and D-enantiomeric forms of TAT and inventive TAT-IB1(s) peptides (“TAT-IB peptides”) to enter cells was evaluated. L-TAT, D-TAT, inventive L-TAT-IB1(s), and inventive D-TAT-IB1(s) peptides [SEQ ID NOs: 5, 6, 9 and 12, respectively] were labeled by N-terminal addition of a glycine residue conjugated to fluorescein. Labeled peptides (1 μM) were added to βTC-3 cell cultures, which were maintained as described in Example 3. At predetermined times cells were washed with PBS and fixed for five minutes in ice-cold methanol-acetone (1:1) before being examined under a fluorescence microscope. Fluorescein-labeled BSA (1 μM, 12 moles/mole BSA) was used as a control.

The test system of data set [1] is primary embryonic cultures and differentiated PC12 cells. As to conditions: dosages that inhibit activation of JNKs; cited from earlier work.
For a further data set, the system named is βTC-3 cells. As to the kind of experiment: Inhibition of IL-1β induced pancreatic β-cell death by TAT-IB peptides. In kind it is cell-based. Here is the method:
We investigated the effects of the inventive L-TAT-IB(s) peptides on the promotion of β-cell apoptosis elicited by IL-1. PTC-3 cell cultures were incubated for 30 minutes with 1 μM of inventive L-TAT-IB1(s) peptides followed by 10 ng/mL of IL-1. A second addition of peptide (1 μM) was performed 24 hours later. Apoptotic cells were counted after two days of incubation with IL-1β using propidium iodide (red stained cell are dead cells) and Hoechst 33342 (blue stained cell are cells with intact plasma membrane) nuclear staining.
Long term inhibition of IL-1 induced cells death was examined by treating βTC-3 cells as described above, except that incubation of the cells with the peptides and IL-1β was sustained for 12 days. Additional peptides (1 μM) were added each day and additional IL-1β (10 ng/mL) was added every 2 days. […] Taken together, these experiments provide evidence that inventive TAT-IB(s) peptides are biologically active molecules able to prevent the effects of JNK signaling on cell fate.
Inhibition of IL-1β induced pancreatic β-cell death by the inventive D-TAT-IB1(s) peptide was analyzed. βTC-3 cells were incubated as described above for 30 minutes with one single addition of the indicated peptides (1, μM), then IL-1 (10 ng/ml) was added.
Apoptotic cells were then counted after two days of incubation with IL-1β by use of Propidium Iodide and Hoechst 33342 nuclear staining. A minimum of 1,000 cells were counted for each experiment. Standard Error of the Means (SEM) are indicated, n=5.
Long term inhibition of IL-1P induced cell-death by the D-TAT-IB1 peptide was also analyzed. βTC-3 cells were incubated as above for 30 minutes with one single addition of the indicated peptides (1 μM), then IL-1β (10 ng/ml) was added, followed by addition of the cytokine every two days. Apoptotic cells were then counted after 15 days of incubation with IL-1 by use of propidium iodide and Hoechst 33342 nuclear staining. […] A minimum of 1.000 cells were counted for each experiment.

For another data set, the system named is WiDr cells. As to the kind of experiment: Irradiation (30 Gy) induced apoptosis of WiDr cells. The data set is classed as cell-based, human. As to conditions: 1 μM added 30 minutes before 30 Gy, analyzed 48 hours later. Here is the method: JNK is also activated by ionizing radiation. To determine whether inventive TAT-IB(s) peptides would provide protection against radiation-induced JNK damage, “WiDr” cells were irradiated (30 Gy) in presence or absence of D-TAT, inventive L-TAT-IB1(s) or inventive D-TAT-IB1(s) peptides (1 μM added 30 minutes before irradiation). Control cells (CTRL) were not irradiated. Cells were analyzed 48 hours later by means of PI and Hoechst 3342 staining, as described above. N=3, SEM are indicated.

For a further data set, the system named is AP-1 DNA binding complex. As to the kind of experiment: Gel retardation assay with AP-1 probe, HeLa cell nuclear extracts, TNF-α. Conditions: peptide added 30 minutes before TNF-α 5 ng/ml. The data set is classed as cell-based.
In data set [2] the test system is JNKs activated by stressful stimuli. As to the kind of experiment: c-Jun phosphorylation by activated JNKs pulled down with GST-Jun from UV-irradiated HeLa or IL-1β treated βTC-3 cells. In kind it is biochemical. Conditions: 25 μM peptide, 20 minutes. On the procedure: The effects of the L-TAT or inventive L-TAT-IB1(s) peptides on JNKs activated by stressful stimuli were evaluated using GST-Jun to pull down JNKs from UV-light irradiated HeLa cells or IL-1β treated PTC cells. PTC cells were cultured as described above. HeLa cells were cultured in DMEM medium supplemented with 10% Fetal Calf Serum, 100 μg/mL Streptomycin, 100 units/ml Penicillin and 2 mM Glutamine. One hour prior to being used for cell extract preparation, PTC cells were activated with IL-1β as described above, whereas HeLa cells were activated by UV-light (20 J/m^2). Cell extracts were prepared from control, UV-light irradiated HeLa cells and IL-1β treated βTC-3 cells by scraping the cell cultures in lysis buffer (20 mM Tris-acetate, 1 mM EGTA, 1% Triton X-100, 10 mM p-nitrophenyl-phosphate, 5 mM sodium pyrophosphate, 10 mMP-glycerophosphate, 1 mM dithiothreitol). Debris was removed by centrifugation for five minutes at 15,000 rpm in an SS-34 Beckman rotor. One-hundred μg extracts were incubated for one hour at room temperature with one μg GST-jun (amino acids 1-89) and 10 μL of glutathione-agarose beads (Sigma). Following four washes with the scraping buffer, the beads were resuspended in the same buffer supplemented with L-TAT or inventive L-TAT-IB1(s) peptides (25 μM) for 20 minutes. […]

The subject of data set [3] is recombinant JNK1, JNK2 and JNK3. The data set is described as follows: Solid phase kinase assay: JNK-mediated phosphorylation of c-Jun, ATF2 and Elk1. The data set is classed as biochemical. Here is the method: (§1) The effects of the peptides on JNKs-mediated phosphorylation of their target transcription factors were investigated in vitro. Recombinant and non activated JNK1, JNK2 and JNK3 were produced using a TRANSCRIPTION AND TRANSLATION rabbit reticulocyte lysate kit (PROMEGA®) and used in solid phase kinase assays with c-jun, ATF2 and Elk1, either alone or fused to glutathione-S-transferase (GST), as substrates. Dose response studies were performed wherein inventive L-TAT or L-TAT-IB1(s) peptides (0-25 μM) were mixed with the recombinant JNK1, JNK2, or JNK3 kinases in reaction buffer (20 mM Tris-acetate, 1 mM EGTA, 10 mM p-nitrophenyl-phosphate (pNPP), 5 mM sodium pyrophosphate, 10 mM p-glycerophosphate, 1 mM dithiothreitol) for 20 minutes. The kinase reactions were then initiated by the addition of 10 mM MgCl2 and 5 pCi^33P-γ-dATP and 1 μg of either GST-Jun (aa 1-89), GST-AFT2 (aa 1-96) or GST-ELK1 (aa 307-428). GST-fusion proteins were purchased from Stratagene (La Jolla, Calif.).
(§2) Ten μL of glutathione-agarose beads were also added to the mixture. Reaction products were then separated by SDS-PAGE on a denaturing 10% polyacrylamide gel. Gels were dried and subsequently exposed to X-ray films (Kodak).
The ability of D-TAT, inventive D-TAT-IB1(s) and inventive L-TAT-IB1 (s) peptides (0-250 μM dosage study) to inhibit GST-Jun (aa 1-73) phosphorylation by recombinant JNK1, JNK2, and JNK3 by were analyzed as described above. Overall, D-TAT-IB1(s) peptide decreased JNK-mediated phosphorylation of c-Jun, but at levels approximately 10-20 fold less efficiently than L-TAT-IB1(s).

Data set [4] deals with activation of c-Jun by JNK. As to the kind of experiment: GAL4 reporter system (GAL-Jun, 5xGAL-LUC) in HeLa cells with MKK4/MKK7 co-transfection. In kind it is cell-based. An excerpt: To determine whether the inventive cell-permeable peptides could block JNK signaling in vivo, we used a heterologous GAL4 system. HeLa cells, cultured as described above, were co-transfected with the 5×GAL-LUC reporter vector together with the GAL-Jun expression construct (Stratagene) comprising the activation domain of c-jun (amino acids 1-89) linked to the GAL4 DNA-binding domain. Activation of JNK was achieved by the co-transfection of vectors expressing the directly upstream kinases MKK4 and MKK7 (see Whitmarsh et al., Science 285: 1573 (1999)). Briefly, 3×10^5 cells were transfected with the plasmids in 3.5-cm dishes using DOTAP (Boehringer Mannheim) following instructions from the manufacturer. For experiments involving GAL-Jun, 20 ng of the plasmid was transfected with 1 μg of the reporter plasmid pFR-Luc (Stratagene) and 0.5 μg of either MKK4 or MKK7 expressing plasmids. Three hours following transfection, cell media were changed and TAT and TAT-IB1(s) peptides (1 μM) were added. The luciferase activities were measured 16 hours later using the “Dual Reporter System” from PROMEGA® after normalization to protein content. […] Because HeLa cells express JNK1 and JNK2 isoforms but not JNK3, we transfected cells with JNK3.

For another data set, the target named is T1, JNK3 (Homo sapiens, UniProt P53779).
T1 construct: host or cells: rabbit reticulocyte lysate, in vitro transcription/translation
T1 sequence (P53779 whole entry, species assumed): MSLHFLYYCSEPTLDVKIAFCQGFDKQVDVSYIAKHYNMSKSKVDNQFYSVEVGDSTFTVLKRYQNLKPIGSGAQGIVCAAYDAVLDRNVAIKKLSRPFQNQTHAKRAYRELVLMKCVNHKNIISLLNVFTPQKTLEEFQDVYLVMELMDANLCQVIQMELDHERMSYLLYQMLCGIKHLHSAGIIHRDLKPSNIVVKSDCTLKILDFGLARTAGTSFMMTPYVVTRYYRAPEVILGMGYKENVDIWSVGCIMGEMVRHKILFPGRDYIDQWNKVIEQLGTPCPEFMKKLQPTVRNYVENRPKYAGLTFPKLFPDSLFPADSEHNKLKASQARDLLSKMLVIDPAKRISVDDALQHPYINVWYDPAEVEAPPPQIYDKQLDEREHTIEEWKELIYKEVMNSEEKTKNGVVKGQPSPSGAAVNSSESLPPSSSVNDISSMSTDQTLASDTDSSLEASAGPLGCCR
The data set is described as follows: Solid phase kinase assay: JNK3 phosphorylation of Elk1. In kind it is biochemical. Conditions: dose response 0-25 μM, GST-ELK1 (aa 307-428). On the procedure:
as §1, §2

The next data set concerns gerbil. As to conditions: in vivo; cited from earlier work.

On to “IPSPSVEEPH KHRPTTLRLT TLGAQDS (IPSPSVEEPHKHRPTTLRLTTLGAQDS) [IB2]”, for which the “efficiency in binding JNK relative to c-Jun or ATF2” value in the data set with JNK was “approximately 100 fold”.

In the case of “NH2-RRRQRRKKRG-COOH (D-amino acids) [D-TAT]”, the “stability inside the cells” value in the data set on βTC-3 cell cultures is reported as “extremely stable inside the cells”.

As to “PGTGCGDTYR PKRPTTLNLF PQVPRSQDT (PGTGCGDTYRPKRPTTLNLFPQVPRSQDT) [IB1]”, the “efficiency in binding JNK relative to c-Jun or ATF2” value with JNK is listed as “approximately 100 fold”.

For the compound `CCSCc1ccc2c(c1)c1c3c(c4c5cc(CSCC)ccc5n5c4c1n2[C@H]1C[C@](O)(C(=O)OC)[C@]5(C)O1)CNC3=O` [CEP-1347], the neuronal survival result in data set [1] was “promotes neuronal survival at dosages that inhibit activation of the c-Jun amino-terminal kinases (JNKs)”.

For the compound “NH2-GRKKRRQRRR-COOH (H-GRKKRRQRRR-OH) [L-TAT]”, in the data set on βTC-3 cell cultures (1 μM labeled peptide added to culture medium, fluorescence microscope), the “entry of fluorescein labeled peptide into cells” value is “efficiently and rapidly (less than five minutes) entered cells”.

“TDQSRPVQPFLNLTTPRKPRYTDPPRRRQRRKKRG (TDQSRPVQPFLNLTTPRKPRYTDPPRRRQRRKKRG) [D-TAT-IB1, reference compound]”: the “decrease of IL-1 induced apoptosis” value with βTC-3 cells (one single addition of peptide 1 μM, two days of IL-1β) is listed as “decreased IL-1 induced apoptosis to a similar extent as L-TAT-IB peptides”.

With “H-GRKKRRQRRRPPRPKRPTTLNLFPQVPRSQD-OH [L-TAT-IB1(s)]”, the “prevention of irradiation induced apoptosis” value with WiDr cells was “able to prevent irradiation induced apoptosis”. Besides, the “formation of the AP-1 DNA binding complex” value with AP-1 DNA binding complex was “decrease the formation of the AP-1 DNA binding complex in the presence of TNF-α”.

Regarding “TAT-IB(s): enantiomer not worded; the examples concerned name L-TAT-IB1(s) (SEQ ID NO: 9) as the tested peptide (GRKKRRQRRRPPRPKRPTTLNLFPQVPRSQD)”, in [2], the “prevention of phosphorylation of c-Jun by activated JNKs” value is on record as “efficiently prevented phosphorylation of c-Jun by activated JNKs”. Moreover, in [3], the “inhibition of JNK family phosphorylation of target transcription factors, overall” value is listed as “superior effects in inhibiting JNK family phosphorylation of their target transcription factors”. The “peptide dose giving nearly complete inhibition of c-Jun, ATF2 and Elk1 phosphorylation by JNKs” value in data set [3] (dose response 0-25 μM, doses as low as) came to 2.5 µM. In [4] (1 μM peptide, luciferase measured 16 hours later), the “activation of c-Jun following MKK4 and MKK7 mediated activation of JNK (luciferase)” value is “blocked activation of c-Jun following MKK4 and MKK7 mediated activation of JNK”. Moreover, the “activation of c-Jun in cells transfected with JNK3” value in data set [4] (HeLa cells transfected with JNK3, 1 μM peptide) is “inhibited JNK2 mediated activation of c-Jun”. In addition, in the data set with JNK3, the “inhibition of JNK3 phosphorylation of Elk1” value was “absence of TAT-IB(s) inhibition of JNK3 phosphorylation of Elk1”. In addition, in the data set on βTC-3 cells (1 μM peptide, second addition at 24 hours, IL-1β 10 ng/mL for two days), the “inhibition of IL-1-induced apoptosis” value is listed as “inhibited IL-1-induced apoptosis of βTC-3 cells”. The “long term protection against IL-1 induced apoptosis” value in the data set on βTC-3 cells (12 days, peptide 1 μM added each day, IL-1β every 2 days) was “confers strong protection against apoptosis”.

For `N#CC(c1ccnc(NCCc2cccnc2)n1)c1nc2ccccc2s1` (centres unmarked) [AS601245], the “protection against delayed loss of hippocampal CA1 neurons” value in the data set on gerbil is on record as “significant protection against the delayed loss of hippocampal CA1 neurons”.
